Results as given in patent US9119847B2, “Neferine and the use thereof in treating huntington disease” (Macau University of Science and Technology, priority 2013, dated 2015).

How the values were obtained:
[1] = ref. [14]; cited from earlier work
[2] = system: Atg7 wild-type mouse embryonic fibroblasts (Atg7+/+); assay: GFP-LC3 puncta in Atg7 wild-type MEFs; assay type: cell-based; conditions: 7.5 μM neferine, 24 h, Atg7+/+ MEFs (FIGS. 4A, 4B)
Description: (§1) GFP-LC3 puncta formation was quantified as previously described. In brief, both Atg7 wild-type and deficient mouse embryonic fibroblasts (MEFs) grown on coverslips in a 6-well plate were treated with indicated concentrations of neferine. The cells were then fixed in 4% paraformaldehyde for 20 minutes at room temperature and then rinsed with PBS. Slides were mounted with FluorSave™ mounting media (Calbiochem, San Diego, Calif.) and examined by fluorescence microscopy. The number of GFP-positive cells with GFP-LC3 puncta formation was examined under the Nikon ECLIPSE 80i microscope. Representative images were captured with CCD digital camera Spot RT3™ (Diagnostic Instruments, Inc., Melville, N.Y.). To quantify for autophagy, the percentage of cells with punctate GFP-LC3 fluorescence was calculated by counting the number of the cells with punctate GFP-LC3 fluorescence in GFP-positive cells. A minimum of 150 cells from 3 randomly selected fields was scored.

[3] = system: PC-12 cells; assay: Cytotoxicity, crystal violet staining cell viability assay; assay type: cell-based, rat; conditions: 7.5 μM neferine, 24 hours, PC-12 cells (FIGS. 6A, 6B)
Description: The test compound of neferine was dissolved in dimethyl sulfoxide (DMSO) at a final concentration of 100 mmol/L and stored at −20° C. For cell viability assay measured by crystal violet staining, PC-12 cells were incubated in 35 mm disc followed by the addition of 7.5 μM neferine for 24 hours. The cells were then incubated with crystal violet for 10 minutes followed by a ddH2O wash. The stained cell images were captured by CCD digital camera Spot RT3™ under the Nikon ECLIPSE 80i microscope with 4× magnification. Cell viability was quantified by dissolving stained cells in 10% acetic acid (200 μL/well). The colorimetric reading of the solute mixture was then determined by spectrophotometer at OD 560 nm. The percentage of cell viability was calculated using the following formula: Cell viability (%)=Cells number treated/Cells number DMSO control×100. Data were obtained from three independent experiments.

[4] = system: EGFP-HDQ74 transfected Atg7 deficient MEFs; assay: Mutant huntingtin aggregates in EGFP-HDQ74 transfected Atg7 deficient MEFs; assay type: cell-based, mouse; conditions: 7.5 μM neferine, 24 h, Atg7−/− cells (FIGS. 5A, 5B)
Description: (§2) In brief, both EGFP-HDQ74 transfected Atg7 wild-type and deficient mouse embryonic fibroblasts (MEFs) grown on coverslips in a 6-well plate were treated with indicated concentrations of neferine. The cells were then fixed in 4% paraformaldehyde for 20 minutes at room temperature and then rinsed with PBS. Slides were mounted with FluorSave™ mounting media (Calbiochem, San Diego, Calif.) and examined by fluorescence microscopy. The number of cells with GFP-aggregates formation was examined under the Nikon ECLIPSE 80i microscope. Representative images were captured with CCD digital camera Spot RT3™ (Diagnostic Instruments, Inc., Melville, N.Y.). To quantify for the clearance of mutant huntingtin, the percentage of cells with GFP-aggregates was calculated by counting the number of the cells with […] in GFP-positive cells. A minimum of 150 cells from 3 randomly selected fields was scored.

[5] = system: PC-12 cells expressing GFP-LC3; assay: Quantification of neferine-mediated autophagy (GFP-LC3 puncta) in the presence of compound C; assay type: cell-based, rat; conditions: 7.5 μM neferine plus compound C 5 μM, PC-12 cells (FIGS. 2B, 2C)
Description: GFP-LC3 puncta formation was quantified as previously described. In brief, PC-12 cells expressing GFP-LC3 were treated with 7.5 μM neferine in the presence of compound C (CC, 5 μM) for 12 h. The cells were then fixed in 4% paraformaldehyde for 20 minutes at room temperature and then rinsed with PBS. Slides were mounted with FluorSave™ mounting media (Calbiochem) and examined by fluorescence microscopy. To quantify for autophagy, the percentage of cells with punctate GFP-LC3 fluorescence was calculated by counting the number of the cells with punctate GFP-LC3 fluorescence in GFP-positive cells. A minimum of 150 cells from 3 randomly selected fields was scored.

[6] = system: mutant huntingtin EGFP-HDQ 55/74; assay: Removal of mutant huntingtin EGFP-HDQ 55/74, immunoblotting against EGFP; assay type: cell-based, rat; conditions: 7.5 μM neferine, 24 hours, transfected PC-12 cells (FIG. 3)
Description: PC-12 cells were transfected transiently with EGFP-HDQ 55/74 plasmids for 24 hours using Lipofectamine Plus LTX reagent (Invitrogen) according to the manufacturer's protocol. The transfected cells were then treated with 7.5 μM neferine for 24 hours. The removal of mutant huntingtin, EGFP-HDQ 55 and 74, was then quantitated by immunoblotting with antibody against EGFP.

[7] = system: PC-12 cells; assay: Quantification of autophagy GFP-LC3 puncta in PC-12 cells; assay type: cell-based, rat
Description: as §1, with “PC-12 cells” for “both Atg7 wild-type and deficient mouse embryonic fibroblasts (MEFs)”, “were” for “were treated with indicated concentrations of neferine. The cells were then”
The data of PC-12 cells with GFP-LC3 expression without any treatment of neferine was used as control.

[8] = system: PC-12 cells transfected with mutant huntingtin EGFP-HDQ 55 and 74; assay: MTT cytotoxicity assay in PC-12 cells expressing mutant huntingtin; assay type: cell-based, rat; conditions: 7.5 μM neferine, 24 h, PC-12 cells with EGFP-HDQ 55 or EGFP-HDQ 74 (FIG. 7)
Description: Cell cytotoxicity assay: Cytotoxicity was assessed using the 3-(4,5-dimethylthiazol-2-yl)-2,5-diphenyltetrazolium bromide assay. PC-12 cells were transfected with or without mutant huntingtin EGFP-HDQ 55 and 74 for 16 h, the PC-12 cells (4000 cells) were then seeded on 96-well plates per well and then exposed to 7.5 μM of neferine for 24 h […]. Subsequently, 10 μL of MTT reagents was added to each well and incubated at 37° C. for 4 hours, followed by the addition of 100 μL solubilization buffer (10% SDS in 0.01 mol/L HCl) and overnight incubation. Absorbance at 585 nm was determined from each well on the following day. The percentage of cell viability was calculated using the following formula: Cell viability (%)=Cells number treated/Cells number DMSO control×100. Data was obtained from three independent experiments.

[9] = system: EGFP-HDQ74 transfected Atg7 wild-type MEFs; assay: Mutant huntingtin aggregates in EGFP-HDQ74 transfected Atg7 wild-type MEFs; assay type: cell-based, mouse; conditions: 7.5 μM neferine, 24 h, Atg7+/+ cells (FIGS. 5A, 5B)
Description: as §2

[10] = system: Atg7-knockout mouse embryonic fibroblasts (Atg7−/−); assay: GFP-LC3 puncta in Atg7 deficient MEFs; assay type: cell-based; conditions: 7.5 μM neferine, 24 h, Atg7−/− MEFs (FIGS. 4A, 4B)
Description: as §1

[11] = system: LC3-II; assay: Detection of autophagic marker protein LC3 conversion (western blot); assay type: cell-based, rat; conditions: PC-12 cells, with lysosomal protease inhibitors E64d and pepstatin A (FIG. 1D)
Description: After neferine treatments with or without autophagy inhibitor (3-Methyladenine, 3-MA) and protease inhibitor (10 μg/mL E64D and pepstain A), cells were harvested and lysed in RIPA buffer (Cell Signaling Technologies Inc., Beverly, Mass.). The cell lysates were then resolved by SDS-PAGE. After electrophoresis, the proteins from SDS-PAGE were transferred to nitrocellulose membrane which was then blocked with 5% non-fat dried milk for 60 minutes. The membrane was then incubated with LC3 primary antibodies (1:1000) in TBST overnight at 4° C. After that, the membrane was further incubated with HRP-conjugated secondary antibodies for 60 minutes. Finally, protein bands were visualized by using the ECL Western Blotting Detection Reagents (Invitrogen, Paisley, Scotland, UK).
To further confirm its autophagic activity, PC-12 cells treated with neferine were analyzed by western blot for LC3-I to LC3-II conversion. To differentiate that the autophagy effect was due to LC3-II formation, rather than failure of fusion between autophagosome and lysosomes, level of LC3-II was assayed with the presence of two lysosomal inhibitors (E64d and pepstatin A) that […].

[12] = system: AMPK-mTOR signaling pathway; assay: Detection of mTOR signaling marker proteins (p-AMPK, p-p70S6K) and LC3-II by western blot; assay type: cell-based, rat
Description: PC-12 cells were treated with neferine (7.5 μM) from 0-24 h. Cells treated with 0.3 μM of rapamycin (Rap) for 24 h were used as the positive control. Cell lysate was then harvested and analyzed for p-AMPK, AMPK, p-p70S6K, p70S6K and α-tubulin respectively. PC-12 cells were treated with 7.5 μM of neferine with or without AMPK inhibitor (compound C, CC, 5 μM) for 24 h for the detection of LC3-II marker. Cell lysates were analyzed for LC3 I/II and β-actin, respectively. After that, the membrane was further incubated with HRP-conjugated secondary antibodies for 60 minutes. Finally, protein bands were visualized by using the ECL Western Blotting Detection Reagents (Invitrogen).

[13] = system: mutant huntingtin; conditions: mouse model of Huntington's disease, ref. [10]; cited from earlier work
[14] = 7.5 μM neferine, 0-24 h, PC-12 cells (FIG. 2A)

In the case of `O=c1c(O)c(-c2ccc(O)c(O)c2)oc2cc(O)ccc12` [fisetin], the bioavailability [1] is given as “poor bioavailability”, the effective concentration [1] is given as “high effective concentration” and the lipophilicity [1] is given as “low lipophilicity”.
For `COc1ccc(C[C@@H]2c3cc(Oc4cc(C[C@@H]5c6cc(OC)c(OC)cc6CCN5C)ccc4O)c(OC)cc3CCN2C)cc1` [neferine], the GFP-LC3 puncta formation [2] was “induce GFP-LC3 puncta formation”, the “cytotoxicity / morphological damage (crystal violet assay)” value [3] was “no significant morphological damage” and the “clearance of mutant huntingtin EGFP-HDQ74 inclusions” value [4] was “not in autophagy-deficient cells”. For the same molecule, the “neferine-induced GFP-LC3 puncta formation in presence of AMPK inhibitor compound C” value [5] was “significant reduction in neferine-induced GFP-LC3 puncta formation”, the “clearance of overexpressed EGFP-tagged mutant huntingtin EGFP-HDQ 55” value [6] was “enhanced the clearance” and the “clearance of overexpressed EGFP-tagged mutant huntingtin EGFP-HDQ 74” value [6] was “enhanced the clearance”. For the same molecule, the “percentage of cells with GFP-LC3 puncta formation” value ([7]; 7.5 μM neferine, 24 h, PC-12 cells with GFP-LC3 expression, vs untreated control (FIGS. 1B, 1C)) was “increased the percentage of cells with GFP-LC3 puncta formation significantly”, the “GFP-LC3 puncta formation in presence of autophagy inhibitor 3-MA” value ([7]; neferine plus 3-Methyladenine (3-MA), PC-12 cells) was “significant reduction in GFP-LC3 puncta formation” and the “cell death induced by mutant huntingtin (cell viability, MTT)” value [8] was “attenuated cell death induced by mutant huntingtin”. The “clearance of mutant huntingtin EGFP-HDQ74 inclusions” value [9] was “enhance the clearance of mutant huntingtin EGFP-HDQ74 inclusions”, the GFP-LC3 puncta formation [10] was “not in Atg7-knockout mouse embryonic fibroblasts” and the “rate of LC3-II formation (LC3-I to LC3-II conversion)” value [11] was “increases the rate of LC3-II formation”. The “LC3-II level in presence of AMPK inhibitor compound C” value ([12]; 7.5 μM neferine plus compound C 5 μM, 24 h, PC-12 cells, western blot (FIG. 2D)) was “decrease in LC3-II level”, the p70S6K phosphorylation [12, 14] was “concomitant reduction in its downstream p70S6K phosphorylation” and the “phosphorylation of AMPK” value [12, 14] was “activate the phosphorylation of AMPK in a time dependent manner”.
For `C1COC(NC(C2CC2)C2CC2)=N1` [rilmenidine], the “toxicity of mutant huntingtin” value [13] is listed as “attenuate the toxicity of mutant huntingtin”.
